This note sets out measurements from patent US20140005103A1, “SULFONAMIDE DERIVATIVES AND METHODS OF USE THEREOF FOR IMPROVING THE PHARMACOKINETICS OF A DRUG” (Merck, Sharp & Dohme Corp., priority 2012, published 2014).

One assay deals with T1, human CYP11B1 (Homo sapiens, UniProt P15538).
T1 construct: expressed in transfected cells
T1 sequence (P15538 25-503): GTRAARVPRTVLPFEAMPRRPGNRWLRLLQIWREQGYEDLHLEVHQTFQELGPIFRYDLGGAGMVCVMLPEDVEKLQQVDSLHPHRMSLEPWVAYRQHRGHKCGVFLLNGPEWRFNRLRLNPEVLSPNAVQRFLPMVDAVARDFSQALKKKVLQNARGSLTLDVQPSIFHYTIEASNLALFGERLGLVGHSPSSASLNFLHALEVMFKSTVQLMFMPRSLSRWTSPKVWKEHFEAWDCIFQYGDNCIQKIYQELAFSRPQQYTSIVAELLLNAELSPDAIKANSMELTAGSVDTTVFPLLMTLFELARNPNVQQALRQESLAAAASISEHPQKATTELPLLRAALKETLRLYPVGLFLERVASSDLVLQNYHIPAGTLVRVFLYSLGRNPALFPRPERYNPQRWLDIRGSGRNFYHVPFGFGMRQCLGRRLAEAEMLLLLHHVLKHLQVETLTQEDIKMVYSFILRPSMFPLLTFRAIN
The assay can be described thus: IC50 vs CYP11B1 by cortisol synthesis in V79 cells. It counts as cell-based. As to conditions: V79 cells expressing human CYP11B1, 1500 nM RSS, cortisol HTRF; test concentrations 0.5-10000 nM. On the procedure:
(§1) Determination of IC50 vs CYP11B1/CYP11B2 by Measurement of Cortisol/Aldosterone Synthesis
(§2) This assay was performed in a standard 384-well plate design using cultured V79 cells stably expressing human CYP11B1 or human CYP11B2. Test compounds at 10 concentrations (for example, 10000, 3333.3, 1111.1, 370.4, 123.5, 41.2, 13.7, 4.6, 1.5 and 0.5 nM) were added in 384-well plate after the cell-seeding procedure. The incubation substrate contains 1500 nM RSS for CYP11B1 assay/750 nM DOC for CYP11B2 assay. The
(§3) Cortisol/Aldosterone production of cell culture supernatant was determined by Cortisol/Aldosterone HTRF kit after for about 15 hours incubation at RT (protect from light). IC50 values were calculated from the percent inhibition observed for each test compound at 10 concentrations.
(§4) The assay plate was read using Envision (Perkin Elmer, Waltham, Mass.) at 665 nm and 590 nm (using Filter Barcode of 217#, 205#; Mirror Barcode of 446#).
(§5) Data are analyzed using Assay Data Analyzer. All ratio data (665 nm/590 nm) are back calculated according to the standard curve, resulting in Cortisol/Aldosterone concentrations. IC50 values are reported as the Inflection Point (IP) of a four parameter fit of the titration data.
(§6) The following equation was used to calculate the % inhibition:
(§7) % Activity=100×{1−(Sample_back calculated Cortisol/Aldosterone concentration−LC_back calculated Cortisol/Aldosterone concentration)/(HC_back calculated Cortisol/Aldosterone concentration−LC_back calculated Cortisol/Aldosterone concentration)}

A further assay addresses T2, CYP2C19 (Homo sapiens, UniProt P33261).
T2 construct: 0.1 mg/mL protein human liver microsomes (BD Gentest); tissue BD Gentest; host or cells: human liver microsomes
In words: Cocktail CYP assay, mephenytoin 4'-hydroxylation. The assay is classed as in vitro ADME. As to conditions: human liver microsomes, 30 μM mephenytoin; test concentrations up to 10 μM. On the procedure: (§8) Determination of IC50 in a Cocktail Assay for CYPs 1A2, 2C9, 2C19, 2D6 and 3A4
(§9) This assay was performed in a standard 96-well plate design. IC50 values were calculated from the percent inhibition observed for each test compound at 6 concentrations (for example, 0.0032, 0.016, 0.08, 0.4, 2 and 10 μM). The incubation substrate mix contains 10 μM phenacetin (1A2), 5 μM diclofenac (2C9), 30 μM mephenyloin (2C19), 5 μM dextromethorphan (2D6) and 2 μM midazolam (3A4), 0.1 mg/mL protein human liver microsomes (BD Gentest), 1 mM NAPDH, 3.3 mM MgCl2 and 100 mM potassium phosphate buffer (pH 7.4). The production of the metabolite of each probe substrate was determined after incubation for 10 min at 37° C. Quantitation of the metabolite peak area ratio against an internal standard (tolbutamide) was determined by LC/MS/MS analysis following acetonitrile treatment of the incubations.
(§10) Samples were analyzed in the MRM mode with a SCIEX API-4000 mass spectrometer (Applied Biosystems, Foster City, Calif.), with a Shimadzu LC-20 AD pump (Shimadzu corporation, Kyoto, JP) and a CTC PAL autosampler (Agilent Technologies, Switzerland). A Phenomenex, Luna, […], 100 A, 2.00×30 mm HPLC column was used for the separation. The mobile phases were: (A) 0.1% formic acid in water and (B) 0.1% formic acid in acetonitrile. The binary gradient was as follows.
(§11) The peak area ratio of the analyte to the internal standard was used to quantify the metabolite. The values of peak area ratios in the presence of test compound were compared to those of maximum or minimum controls and were expressed as % inhibition by interpolating between the maximum and minimum peak area ratios. Incubations with no inhibitor were defined as the maxima.
as §6
(§12) [1−[(X−Low control)/(High control−Low control)]]*100
(§13) For the IC50 calculation, SigmaPlot was used to plot the mean % inhibition versus the test compound concentrations and for non-linear regression analysis of the data. Depending on the range of data points defining the inhibition curve, the data may have been fit to the 4-parameter logistic equation.
In general terms: Liver microsomes are a subcellular fraction often used to study metabolism.

Another assay concerns the target T3, CYP2D6 (Homo sapiens, UniProt P10635).
T3 construct: 0.1 mg/mL protein human liver microsomes (BD Gentest); tissue BD Gentest; host or cells: human liver microsomes
In words: Cocktail CYP assay, dextromethorphan O-demethylation. The assay is classed as in vitro ADME. As to conditions: human liver microsomes, 5 μM dextromethorphan; test concentrations up to 10 μM. On the procedure: as §8, §9, §10, §11, §6, §12, §13

In the next assay the target is T4, CYP1A2 (Homo sapiens, UniProt P05177).
T4 construct: 0.1 mg/mL protein human liver microsomes (BD Gentest); tissue BD Gentest; host or cells: human liver microsomes
T4 sequence (P05177 1-516): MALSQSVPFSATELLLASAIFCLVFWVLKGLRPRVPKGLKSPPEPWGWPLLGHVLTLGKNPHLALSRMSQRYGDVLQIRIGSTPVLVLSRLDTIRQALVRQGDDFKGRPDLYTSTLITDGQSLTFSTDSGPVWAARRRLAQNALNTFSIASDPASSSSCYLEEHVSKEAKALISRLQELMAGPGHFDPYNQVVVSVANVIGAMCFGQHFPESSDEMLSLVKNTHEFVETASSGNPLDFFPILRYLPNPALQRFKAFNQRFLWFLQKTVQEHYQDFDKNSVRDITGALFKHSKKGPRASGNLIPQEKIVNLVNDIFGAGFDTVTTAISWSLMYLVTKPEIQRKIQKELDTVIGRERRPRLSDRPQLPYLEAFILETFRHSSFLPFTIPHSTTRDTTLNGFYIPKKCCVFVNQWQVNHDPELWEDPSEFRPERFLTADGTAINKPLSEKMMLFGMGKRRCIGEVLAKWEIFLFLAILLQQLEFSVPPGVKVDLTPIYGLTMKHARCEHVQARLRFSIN
In words: Cocktail CYP assay, phenacetin O-deethylation. The assay is classed as in vitro ADME. As to conditions: human liver microsomes, 10 μM phenacetin; test concentrations up to 10 μM. On the procedure: as §8, §9, §10, §11, §6, §12, §13

A further assay has as its target T5, CYP2C9 (Homo sapiens, UniProt P11712).
T5 construct: 0.1 mg/mL protein human liver microsomes (BD Gentest); tissue BD Gentest; host or cells: human liver microsomes
The assay can be described thus: Cocktail CYP assay, diclofenac 4'-hydroxylation. The assay is classed as in vitro ADME. The settings on record: human liver microsomes, 5 μM diclofenac; test concentrations up to 10 μM. On the procedure:
as §8, §9, §10, §11, §6, §12, §13

The target in the next assay is T6, human CYP11B2 (Homo sapiens, UniProt P19099).
T6 construct: expressed in transfected cells
T6 sequence (P19099 25-503): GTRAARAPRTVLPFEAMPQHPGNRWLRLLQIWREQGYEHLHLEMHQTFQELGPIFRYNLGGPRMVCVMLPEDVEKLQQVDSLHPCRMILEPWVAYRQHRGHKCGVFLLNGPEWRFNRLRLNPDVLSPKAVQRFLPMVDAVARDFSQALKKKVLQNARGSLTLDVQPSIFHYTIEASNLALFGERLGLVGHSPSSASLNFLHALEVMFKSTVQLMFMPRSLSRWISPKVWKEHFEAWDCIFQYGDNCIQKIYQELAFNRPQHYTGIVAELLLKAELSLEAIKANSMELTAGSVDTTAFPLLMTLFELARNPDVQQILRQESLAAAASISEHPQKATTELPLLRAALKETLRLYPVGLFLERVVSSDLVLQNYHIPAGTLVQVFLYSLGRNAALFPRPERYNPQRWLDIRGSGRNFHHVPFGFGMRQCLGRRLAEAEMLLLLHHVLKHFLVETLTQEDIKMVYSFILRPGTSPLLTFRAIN
In words: IC50 vs CYP11B2 by aldosterone synthesis in V79 cells. The assay is classed as cell-based. As to conditions: V79 cells expressing human CYP11B2, 750 nM DOC, aldosterone HTRF; test concentrations 0.5-10000 nM. On the procedure: as §1, §2, §3, §4, §5, §6, §7
(In general: Time-resolved FRET reads energy transfer from a long-lived donor to a nearby acceptor.)

T5 sequence (P11712 whole entry): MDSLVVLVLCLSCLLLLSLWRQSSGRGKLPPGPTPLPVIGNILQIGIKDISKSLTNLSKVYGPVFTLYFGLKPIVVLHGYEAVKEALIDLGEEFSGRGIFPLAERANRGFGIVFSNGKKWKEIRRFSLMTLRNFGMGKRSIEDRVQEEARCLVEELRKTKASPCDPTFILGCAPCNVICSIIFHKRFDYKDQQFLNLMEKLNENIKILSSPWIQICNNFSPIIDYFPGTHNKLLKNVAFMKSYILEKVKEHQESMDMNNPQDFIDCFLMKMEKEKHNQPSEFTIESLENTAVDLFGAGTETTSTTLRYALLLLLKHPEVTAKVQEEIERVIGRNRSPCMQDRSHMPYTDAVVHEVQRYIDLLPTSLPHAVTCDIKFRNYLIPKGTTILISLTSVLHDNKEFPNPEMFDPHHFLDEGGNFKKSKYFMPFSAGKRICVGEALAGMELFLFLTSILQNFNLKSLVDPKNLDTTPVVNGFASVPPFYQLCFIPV
T2 sequence (P33261 whole entry): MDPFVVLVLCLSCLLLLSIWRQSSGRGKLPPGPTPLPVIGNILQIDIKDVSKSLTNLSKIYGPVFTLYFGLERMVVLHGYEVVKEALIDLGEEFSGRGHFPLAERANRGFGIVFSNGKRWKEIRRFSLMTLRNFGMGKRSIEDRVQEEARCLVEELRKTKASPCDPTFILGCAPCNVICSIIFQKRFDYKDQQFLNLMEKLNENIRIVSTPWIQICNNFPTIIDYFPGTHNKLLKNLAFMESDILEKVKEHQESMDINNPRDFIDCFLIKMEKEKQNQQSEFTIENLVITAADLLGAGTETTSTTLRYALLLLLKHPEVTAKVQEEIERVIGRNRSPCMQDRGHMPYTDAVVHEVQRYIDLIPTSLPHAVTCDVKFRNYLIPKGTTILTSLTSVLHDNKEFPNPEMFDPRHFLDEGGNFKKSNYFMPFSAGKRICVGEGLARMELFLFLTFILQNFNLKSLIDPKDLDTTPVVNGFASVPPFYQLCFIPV
T3 sequence (P10635 whole entry): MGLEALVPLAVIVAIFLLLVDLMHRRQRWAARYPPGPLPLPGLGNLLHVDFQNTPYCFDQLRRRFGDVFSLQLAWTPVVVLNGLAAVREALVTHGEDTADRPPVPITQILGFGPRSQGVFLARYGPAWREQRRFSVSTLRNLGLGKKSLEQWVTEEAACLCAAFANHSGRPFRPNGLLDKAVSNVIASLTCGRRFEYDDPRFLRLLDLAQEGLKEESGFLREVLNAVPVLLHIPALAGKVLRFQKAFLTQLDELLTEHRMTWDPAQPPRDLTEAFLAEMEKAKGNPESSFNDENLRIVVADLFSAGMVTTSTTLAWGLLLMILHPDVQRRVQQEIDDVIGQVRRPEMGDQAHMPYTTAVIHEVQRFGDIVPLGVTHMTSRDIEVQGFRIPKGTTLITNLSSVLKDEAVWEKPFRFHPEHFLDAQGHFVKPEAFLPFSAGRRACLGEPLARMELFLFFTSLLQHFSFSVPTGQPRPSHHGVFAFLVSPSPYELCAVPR

For `C[C@H](c1ccc(F)cc1)n1cncc1CN1CCN(S(=O)(=O)c2cnc(N3CC[C@@H](N)[C@H](F)C3)s2)CC1` [Compound 12], the IC50 (as a rule, the concentration at which inhibition is half-maximal) at human CYP11B1 is 1460 nM; against CYP2C19 it was above 10000 nM; against CYP2D6, 2850 nM; on CYP1A2, above 10000 nM; on CYP2C9, 1750 nM; on human CYP11B2, 1690 nM.
